Values joined by “and” are separate entries in the source; they are usually repeats but may differ in a detail not shown here. Equal values may be shown once. Each block holds one compound with its values, some of them ahead of it.
Columns and labels:
[1] = Total and unbound fXa inhibitor plasma concentration in rats; type: in vivo, rat; conditions: for fraction unbound: intravenous
Procedure: Total rivaroxaban plasma concentration at different time points from FIG. 10A was determined by LC-MS (solid line).
Similar experiments were carried out using betrixaban and apixaban infusion into anesthetized rats (FIG. 10B and FIG. 10C).
Blood sampling catheter patency was maintained by slow infusion of normal saline. Serial blood samples were obtained during the experimental time course. Total fXa inhibitor concentration was measured by HPLC with tandem mass spectrometry.

blood loss [2] = experiment: Mouse tail transection blood loss model; type: in vivo; conditions: for blood loss: 15 min, mean±SD, rivaroxaban 50 mg/kg oral, ASA ~100 mg/kg/day 5 days, treatment as labelled
Procedure: Mice (n=5-8/group) were first dosed orally with vehicle or aspirin at ˜100 mg/kg/day for 5 days. Rivaroxaban (50 mg/kg) or vehicle (5 mL/kg) was then dosed orally.
For the mouse tail transection blood loss model, mice (male, C57BL/6, Charles River) were first treated with aspirin at ˜100 mg/kg/day for 5 days via drinking water.

blood loss [3] = experiment: Rat tail transection model, r-Antidote bolus plus infusion after enoxaparin or fondaparinux; type: in vivo; conditions: fondaparinux 25 mg/kg; protamine 0.9 mg/rat IV bolus; p=0.39
Procedure: Enoxaparin (4.5 mg/kg) or vehicle was dosed by IV bolus over 5 min, followed by treatment with vehicle or two different doses of r-Antidotc (2 mg/rat bolus plus 2 mg/hr infusion and 4 mg/rat bolus plus 4 mg/hr infusion) starting at 10 min. […] Protamine was dosed as an IV bolus only (0.9 mg/rat). […] Anti-fXa activity was normalized to the activity of Treat-II at 5 min time point. *** P-value (Treat-III vs. Treat-II)≤0.0001.
The collected blood samples were processed by freezing the samples at −80° C. to lyse erythrocytes. Hemoglobin concentration and corresponding blood volume were quantified spectrophotometrically (Absorbance at 490 nm) from a standard curve constructed with known volumes of blood.

blood loss [4] = experiment: Rabbit liver laceration blood loss model; type: in vivo; conditions: for increase in blood loss compared with vehicle: rivaroxaban 1 mg/kg IV bolus
Procedure: Rivaroxaban (1 mg/kg) or vehicle was dosed by IV bolus over 2 minutes via marginal ear vein catheter. […] Riva=Rivaroxaban; g=gram
(§1) Anesthetized rabbits were administered vehicle or 1 mg/kg rivaroxaban via IV bolus injection. […] Total rivaroxaban concentration in plasma was measured by LC-MS/MS. […] Anti-fXa activity was measured using a modified chromogenic LMW heparin kit. PT and aPTT was measured using commercial reagents (HemosIL).
Anesthetized rabbits were administered vehicle or 1 mg/kg rivaroxaban via IV bolus injection. […] As in the rodent model, total and free rivaroxaban concentration in plasma, anti-fXa activity and PT and activated partial thromboplastin times (aPTT) was measured.
(§2) Rivaroxaban (1 mg/kg) or vehicle was dosed to anesthetized rabbits by IV bolus over 2 minutes via marginal ear vein catheter. […] Serial blood samples were collected at 0, 30, 35, and 50 minutes post rivaroxaban. Measurements included reduction in blood loss, decrease in unbound rivaroxaban in the plasma using equilibrium dialysis method, anti-fXa activity, PT and aPTT. The method for measuring PT is described previously in Example 6.

prothrombin time (PT) [5] = experiment: Prothrombin time in rabbit liver laceration model; type: in vivo; conditions: for prolongation of PT: rivaroxaban 1 mg/kg, 30 min time point
Procedure: as §1
(§3) For human in vitro and rat ex vivo experiments, PT was measured using MLA Electra 800 automatic coagulation timer. Innovin was automatically dispensed to plasma samples (100 μL) per manufacturer's instructions. […] For rabbit experiments, PT and aPTT were measured using a Beckman Coulter ACL Elite instrument with HemosIL reagents (available commercially from Instrumentation Laboratories). Whole blood INR (International Normalized Ratio) for animal samples were measured by Hemchron Jr. Signature Cartridges (International Technidyne Corporation) according to manufacturer's instructions.
as §2

[6] = system: activated partial thromboplastin time (aPTT); experiment: Activated partial thromboplastin time in rabbit liver laceration model; type: in vivo; conditions: for prolongation of aPTT: rivaroxaban 1 mg/kg, 30 min time point
Procedure: as §1, §3, §2

[7] = Total and free rivaroxaban concentration in rabbit plasma; type: in vivo; conditions: for concentration at 30 min: male, NZW, rabbit, plasma
Procedure: as §1, §2

prothrombin time (PT) [8] = experiment: Prothrombin time in human plasma in vitro; type: biochemical; conditions: rivaroxaban 1 μM
Procedure: as §3

[9] = Total rivaroxaban concentration in mouse plasma; conditions: following r-Antidote administration (Treat-V)
blood loss [10] = experiment: Rat tail transection treatment model, r-Antidote given after bleeding initiated; type: in vivo; conditions: enoxaparin-treated group
Procedure: In a pilot study using this antidote treatment model, anesthetized rats were intravenously (IV) administered either vehicle or enoxaparin (4.5 mg/kg, IV bolus) followed by tail transection at 5 min post-dosing.
Anesthetized rats were administered enoxaparin (4.5 mg/kg) or vehicle by I.V. bolus injection followed by tail transection (2 mm from tip) 5 minutes later. […] The tip of the tail was placed in physiologic saline at 37° C. and blood collected for an additional 45 minutes after tail transection. Blood was lysed by diluting in water and freezing at −80° C. overnight. […] Anti-fXa activity of enoxaparin was measured using a modified chromogenic LMW heparin kit. Tissue factor (TF)-initiated thrombin generation was carried out in human plasma using a fluorogenic thrombin substrate by measurement of change of relative fluorescence unit (RFU) for 10 min following initiation of the reaction.

[11] = Phase 2 trial: anti-fXa activity (chromogenic assay) after apixaban and r-Antidote; type: in vivo, human; conditions: apixaban 5 mg bid (11 doses)
Excerpt: (§4) Pharmacodynamic and safety data are collected through Day 48 and PK through Day 10. A chromogenic assay was used to determine anti-fXa activity.

[12] = Phase 2 trial: plasma concentrations; conditions: apixaban 5 mg bid
Excerpt: as §4

[13] = upon administration of r-Antidote
[14] = 30 minutes post rivaroxaban (before treatment)

fraction unbound ([1]; male, SD, rat, plasma): 0.003
concentration at 30 min ([1]; male, SD, rat, plasma, iv): 200 nM
fraction unbound at 30 min ([1]; male, SD, rat, plasma, iv): 0.41
concentration at 30 min [1, 13]: 2000 nM
Compound: COc1ccc(NC(=O)c2ccc(C(=N)N(C)C)cc2)c(C(=O)Nc2ccc(Cl)cn2)c1 [betrixaban]

Compound: CC(=O)Oc1ccccc1C(=O)O [aspirin]
blood loss (blood loss [2]): 118 ± 71 µL

Compound: Protamine
effect on fondaparinux anticoagulation (blood loss [3]): no statistically significant effect

free (non-protein bound) fraction of rivaroxaban in plasma ([7]; after r-Antidote 75 mg/rabbit): < 0.5%
free (non-protein bound) fraction of rivaroxaban in plasma ([7]; before r-Antidote): 26%
concentration at 30 min ([7]; intravenous, 1 mg/kg, just prior to treatment, dose group as labelled): 1200 nM
concentration at 30 min ([7]; 30 min time point, 1 mg/kg IV): 1650 nM
concentration at 30 min ([1]; male, SD, rat, plasma, iv): 1400 nM
fraction unbound at 30 min ([1]; male, SD, rat, plasma, iv): 0.022
concentration at 30 min [1, 13]: 1900 nM
increase of total rivaroxaban concentration in plasma [9]: 7.8 fold
Compound: O=C(NC[C@H]1CN(c2ccc(N3CCOCC3=O)cc2)C(=O)O1)c1ccc(Cl)s1 [rivaroxaban]
blood loss (blood loss [2]): 216 ± 222 µL
increase in blood loss (blood loss [2]; ASA-treated mice (~100 mg/kg/day, 5 days), single oral Riva 50 mg/kg, Riva+ASA vs. ASA): 3.4 fold
blood loss due to rivaroxaban anticoagulation as share of total blood volume (blood loss [4]; rivaroxaban 1 mg/kg): approximately 10%
increase in blood loss compared with vehicle (blood loss [4]): 3.2 fold and > 3 fold
increase in blood loss compared with vehicle (blood loss [4]; listed as Rivaroxaban): 3.2 fold
blood loss (blood loss [4]; rivaroxaban group, 15 min collection): 22.7±9.3 grams
Prothrombin Times (prothrombin time (PT) [5]; 0 minutes post rivaroxaban): 6.2 ± 0.4 s
Prothrombin Times (prothrombin time (PT) [5]; [14]): 15.8 ± 1.5 s
Prothrombin Times (prothrombin time (PT) [5]; 35 minutes post rivaroxaban): 15.0 ± 1.6 s
Prothrombin Times (prothrombin time (PT) [5]; 50 minutes post rivaroxaban): 13.8 ± 1.3 s
prolongation of PT (prothrombin time (PT) [5]): 2.3 fold and 2.5 fold
prolongation of PT (prothrombin time (PT) [5]; listed as Rivaroxaban): 2.3 fold
Activated Partial Thromboplastin Times ([6]; 0 minutes post rivaroxaban): 28 ± 5 s
Activated Partial Thromboplastin Times [6, 14]: 49 ± 8 s
Activated Partial Thromboplastin Times ([6]; 35 minutes post rivaroxaban): 48 ± 8 s
Activated Partial Thromboplastin Times ([6]; 50 minutes post rivaroxaban): 48 ± 8 s
prolongation of aPTT [6]: 1.9 fold and 1.8 fold
prolongation of aPTT ([6]; listed as Rivaroxaban): 1.9 fold
effect on prothrombin time (prothrombin time (PT) [8]): prolongation of prothrombin time

Compound: enoxaparin
share of blood loss occurring within first 10 min prior to treatment (blood loss [10]): ~26%
total blood loss as share of animal's total blood volume (blood loss [10]): about 5%

Compound: COc1ccc(-n2nc(C(N)=O)c3c2C(=O)N(c2ccc(N4CCCCC4=O)cc2)CC3)cc1 [apixaban]
fraction unbound ([1]; male, SD, rat, plasma): 0.0005
concentration at 30 min ([1]; male, SD, rat, plasma, iv): 1400 nM
fraction unbound at 30 min ([1]; male, SD, rat, plasma, iv): 0.015
concentration at 30 min [1, 13]: 4200 nM
time of peak anti-fXa activity post last apixaban dose [11]: 3 h
mean apixaban plasma concentration [12]: 474 nM
